Results taken from PubChem BioAssay AID651630 (Sanford-Burnham Center for Chemical Genomics, 2012).
The source made the active and inactive calls.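 How the source made its calls: active means lipid-stain IC50 at or below a set limit, with nuclear-stain toxicity IC50 at least five times higher; inactive means the rest.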

What was measured:
[1] = test system: TAG; assay: triacylglycerol accumulation inhibitor potency, dose response, cell-based, panel, Nile Red and DAPI fluorescence, H9c2 (AID 651630); conditions: H9c2 cells, Nile Red TAG fluorescence, oleic acid;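 further: cells exposed to compound overnight before fixation and staining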
[2] = test system: DAPI; assay: as above; conditions: H9c2 cells, DAPI nuclear fluorescence (cytotoxicity counter-readout), oleic acid

COc1ccc(Nc2oc(-c3ccc(Cl)cc3)nc2C#N)cc1
IC50 ([1]; run 1): 17.9 µM
IC50 ([1]; run 2): > 25 µM
IC50 cytotoxicity (DAPI nuclear signal decrease) ([2]; mean of runs): > 25 µM (inactive)
IC50 cytotoxicity (DAPI nuclear signal decrease) ([2]; run 1): > 25 µM
IC50 cytotoxicity (DAPI nuclear signal decrease) ([2]; run 2): > 25 µM

COc1cc(/C=C2\Oc3ccc(C#Cc4ccc(O)cc4)cc3C2=O)cc(OC)c1
IC50 ([1]; mean of runs): 3.01 µM
IC50 ([1]; run 1): 3.1 µM
IC50 ([1]; run 2): 2.92 µM
IC50 cytotoxicity (DAPI nuclear signal decrease) ([2]; mean of runs): 4.72 µM (inactive)
IC50 cytotoxicity (DAPI nuclear signal decrease) ([2]; run 1): 5.07 µM
IC50 cytotoxicity (DAPI nuclear signal decrease) ([2]; run 2): 4.36 µM

CCCCCc1cc(=O)oc2c(C(CCN(CC)CC)c3ccc(N(C)C)cc3)c(OC)cc(OC)c12 (centres undefined)
IC50 ([1]; run 1): > 25 µM
IC50 ([1]; run 2): 17.5 µM
IC50 cytotoxicity (DAPI nuclear signal decrease) ([2]; mean of runs): > 25 µM (inactive)
IC50 cytotoxicity (DAPI nuclear signal decrease) ([2]; run 1): > 25 µM
IC50 cytotoxicity (DAPI nuclear signal decrease) ([2]; run 2): > 25 µM

CCCc1cc(N2CCCC2)n2nc(C)c(-c3ccccc3)c2n1
IC50 ([1]; mean of runs): > 25 µM (inactive)
IC50 ([1]; run 1): > 25 µM
IC50 ([1]; run 2): > 25 µM
IC50 cytotoxicity (DAPI nuclear signal decrease) ([2]; mean of runs): > 25 µM (inactive)
IC50 cytotoxicity (DAPI nuclear signal decrease) ([2]; run 1): > 25 µM
IC50 cytotoxicity (DAPI nuclear signal decrease) ([2]; run 2): > 25 µM

COC(=O)c1cc(C(=O)N2CCN(c3cccc(Cl)c3)CC2)cc([N+](=O)[O-])c1
IC50 ([1]; run 1): 22.4 µM
IC50 ([1]; run 2): > 25 µM
IC50 cytotoxicity (DAPI nuclear signal decrease) ([2]; mean of runs): > 25 µM (inactive)
IC50 cytotoxicity (DAPI nuclear signal decrease) ([2]; run 1): > 25 µM
IC50 cytotoxicity (DAPI nuclear signal decrease) ([2]; run 2): > 25 µM

Cc1cccc(Nc2nc(NCc3ccco3)nc(N3CCOCC3)n2)c1
IC50 ([1]; mean of runs): > 25 µM (inactive)
IC50 ([1]; run 1): > 25 µM
IC50 ([1]; run 2): > 25 µM
IC50 cytotoxicity (DAPI nuclear signal decrease) ([2]; mean of runs): > 25 µM (inactive)
IC50 cytotoxicity (DAPI nuclear signal decrease) ([2]; run 1): > 25 µM
IC50 cytotoxicity (DAPI nuclear signal decrease) ([2]; run 2): > 25 µM

CCOC(=O)/C(=N\Nc1ccc(Cl)cc1)c1csc(Nc2ccccc2)n1
IC50 ([1]; mean of runs): 6.51 µM
IC50 ([1]; run 1): 6.29 µM
IC50 ([1]; run 2): 6.72 µM
IC50 cytotoxicity (DAPI nuclear signal decrease) ([2]; mean of runs): 22.5 µM (inactive)
IC50 cytotoxicity (DAPI nuclear signal decrease) ([2]; run 1): 20.6 µM
IC50 cytotoxicity (DAPI nuclear signal decrease) ([2]; run 2): 24.4 µM

CCOC(=O)c1[nH]c2ccc(OCC)cc2c1NC(=O)CN1CCN(c2ccccc2)CC1
IC50 ([1]; mean of runs): 22.7 µM (inactive)
IC50 ([1]; run 1): 20.4 µM
IC50 ([1]; run 2): 25 µM
IC50 cytotoxicity (DAPI nuclear signal decrease) ([2]; mean of runs): > 25 µM (inactive)
IC50 cytotoxicity (DAPI nuclear signal decrease) ([2]; run 1): > 25 µM
IC50 cytotoxicity (DAPI nuclear signal decrease) ([2]; run 2): > 25 µM

CCc1nn2c(N3CCOCC3)cc(C)nc2c1-c1ccc(F)cc1
IC50 ([1]; run 1): > 25 µM
IC50 ([1]; run 2): < 0.78 µM
IC50 cytotoxicity (DAPI nuclear signal decrease) ([2]; mean of runs): > 25 µM (inactive)
IC50 cytotoxicity (DAPI nuclear signal decrease) ([2]; run 1): > 25 µM
IC50 cytotoxicity (DAPI nuclear signal decrease) ([2]; run 2): > 25 µM

CC(C)(C)N1C(=O)[C@H]2[C@@H](c3ccc(Br)cc3)N3C(=O)N(c4ccc(Br)cc4)C(=O)[C@@]3(Cc3ccccc3)[C@H]2C1=O
IC50 ([1]; mean of runs): 17.2 µM (inactive)
IC50 ([1]; run 1): 18.3 µM
IC50 ([1]; run 2): 16 µM
IC50 cytotoxicity (DAPI nuclear signal decrease) ([2]; mean of runs): > 25 µM (inactive)
IC50 cytotoxicity (DAPI nuclear signal decrease) ([2]; run 1): > 25 µM
IC50 cytotoxicity (DAPI nuclear signal decrease) ([2]; run 2): > 25 µM

O=C1C=CC(O)C2(CO)OC12 (centres undefined)
IC50 ([1]; run 1): 14.4 µM
IC50 ([1]; run 2): > 25 µM
IC50 cytotoxicity (DAPI nuclear signal decrease) ([2]; mean of runs): > 25 µM (inactive)
IC50 cytotoxicity (DAPI nuclear signal decrease) ([2]; run 1): > 25 µM
IC50 cytotoxicity (DAPI nuclear signal decrease) ([2]; run 2): > 25 µM

CCOc1ccc(NC(=O)c2ccc(NC(=O)CSc3nc4ccccc4c(=O)[nH]3)cc2)cc1
IC50 ([1]; run 1): 24.6 µM
IC50 ([1]; run 2): > 25 µM
IC50 cytotoxicity (DAPI nuclear signal decrease) ([2]; mean of runs): > 25 µM (inactive)
IC50 cytotoxicity (DAPI nuclear signal decrease) ([2]; run 1): > 25 µM
IC50 cytotoxicity (DAPI nuclear signal decrease) ([2]; run 2): > 25 µM

Cc1ccc(-c2nn(-c3ccccc3)cc2CSC(=N)N)cc1
IC50 ([1]; mean of runs): 3.82 µM
IC50 ([1]; run 1): 3.92 µM
IC50 ([1]; run 2): 3.73 µM
IC50 cytotoxicity (DAPI nuclear signal decrease) ([2]; mean of runs): 21 µM
IC50 cytotoxicity (DAPI nuclear signal decrease) ([2]; run 1): 21.1 µM
IC50 cytotoxicity (DAPI nuclear signal decrease) ([2]; run 2): 20.9 µM

c1ccc(Oc2nc(-c3ccccn3)nc3ccccc23)cc1
IC50 ([1]; mean of runs): > 25 µM (inactive)
IC50 ([1]; run 1): > 25 µM
IC50 ([1]; run 2): > 25 µM
IC50 cytotoxicity (DAPI nuclear signal decrease) ([2]; mean of runs): > 25 µM (inactive)
IC50 cytotoxicity (DAPI nuclear signal decrease) ([2]; run 1): > 25 µM
IC50 cytotoxicity (DAPI nuclear signal decrease) ([2]; run 2): > 25 µM

c1ccc(-c2csc(NNC3=NCCCCC3)n2)cc1
IC50 ([1]; mean of runs): 3.65 µM
IC50 ([1]; run 1): 3.15 µM
IC50 ([1]; run 2): 4.14 µM
IC50 cytotoxicity (DAPI nuclear signal decrease) ([2]; run 1): > 25 µM
IC50 cytotoxicity (DAPI nuclear signal decrease) ([2]; run 2): > 25 µM

COC(=O)[C@@]1(Cc2ccc(F)cc2)[C@H]2c3cc(C(=O)N4CCCC4)n(CCCNc4ncc(C(F)(F)F)cc4Cl)c3C[C@H]2CN1C(=O)c1ccccc1
IC50 ([1]; mean of runs): 2.58 µM
IC50 ([1]; run 1): 2.76 µM
IC50 ([1]; run 2): 2.41 µM
IC50 cytotoxicity (DAPI nuclear signal decrease) ([2]; run 1): > 25 µM
IC50 cytotoxicity (DAPI nuclear signal decrease) ([2]; run 2): > 25 µM

CCOC(=O)[C@H]1[C@H]2COc3ccc(Cl)cc3[C@@H]2N2C(=O)c3cc(OC)ccc3NC(=O)[C@@]12C
IC50 ([1]; mean of runs): > 25 µM (inactive)
IC50 ([1]; run 1): > 25 µM
IC50 ([1]; run 2): > 25 µM
IC50 cytotoxicity (DAPI nuclear signal decrease) ([2]; mean of runs): > 25 µM (inactive)
IC50 cytotoxicity (DAPI nuclear signal decrease) ([2]; run 1): > 25 µM
IC50 cytotoxicity (DAPI nuclear signal decrease) ([2]; run 2): > 25 µM
